# Assay results taken from patent publication US12478625B2, “Pharmaceutical compositions and crushable tablets including amorphous solid dispersions of dasatinib and uses” (Handa Therapeutics, LLC, priority 2021, dated 2025).
# Legend:
# Conditions in all cases: promptly after spray drying and vacuum drying
# [1] = Amorphicity / crystallinity by XRD on stability; format: physicochemical
# Experimental: Diffraction patterns were obtained using a Rigaku MiniFlex 600.
# The percent of crystallinity was calculated as follows: % crystallinity=area of crystalline peaks/(area of crystalline peaks+amorphous peaks)
# (§1) ASDs stored at 25° C./60% RH and 25° C./protected were additionally evaluated at 9 months and 12 months.
# Amorphicity and glass transition temperature were assessed using the methodology described in Example 1.
# [2] = Water content by coulometric Karl Fischer titration; format: physicochemical
# [3] = Assay / total impurities by HPLC on stability; format: physicochemical
# Experimental: as §1
# LOD was evaluated using the Computrac Max 4000, in which approximately 0.5 g of material was spread evenly across the sample pan. Assay/impurities of the ASDs were assessed using the instrument parameters, measurement conditions, and gradient profile specified in Table 11.
# [4] = Glass transition temperature by modulated DSC
compound,measurement,setting,value
Cc1nc(Nc2ncc(C(=O)Nc3c(C)cccc3Cl)s2)cc(N2CCN(CCO)CC2)n1 [spray-dried material of 100% dasatinib],XRD crystallinity,[1],exhibited crystalline character
same,Water content,[2],0.81%
same,assay value,[3],97.4%
same,glass transition temperature (Tg),[4],125.61 °C
